Source: patent US20080269202A1, “Novel 2,3-benzodiazepine derivatives and their use as antipsychotic agents” (Teva Pharmaceutical Industries Ltd., priority 2007, published 2008)
pKi: −log10 of the molar value. Like-named read-outs stand apart in the source and are kept apart here.

What was measured:
[1] = test system: apomorphine-induced stereotyped behavior; test: apomorphine-induced stereotypy; format: in vivo, CD1 mice; conditions: Mus musculus, read-out: Stereotypy ED50 (mg/kg po.)
Source text: Anti-apomorphine effects were investigated in the climbing test in mice mediated through the mesolimbic and stereotypy test in rats mediated through the nigrostriatal system. Conventional antipsychotics antagonize both apomorphine-induced behaviours, while known atypical antipsychotics are weaker against apomorphine stereotypy.
Apomorphine-induced stereotypy was investigated according to Costall and Naylor (B. Costall and R. J. Naylor, Eur. J. Pharmacol. 1972, 18, 95) in male CD1 mice of 20-25 g body weight after 16 hours deprivation of food. 30 min before treatment mice were individually placed into small, transparent acrylic cages for habituation. Test substances were administered orally in a volume of 0.1 ml/10 g. 30 min later mice were treated with apomorphine HCl (SIGMA) in a subcutaneous dose of 2 mg/kg. […] The scores were summed individually, meaned and compared to the control group. The ED50 values were calculated by Litchfield-Wilcoxon's method (J. Pharmacol. Exp. Ther. 1949, 96, 49,).

[2] = target: central dopaminergic receptors (Homo sapiens, UniProt P35462); test: in vitro binding profile to central dopaminergic receptors (Table 3); conditions: human recombinant CHO cells, ligand [3H]spiperone (footnote prints D2); read-out: D3 binding
Sequence of central dopaminergic receptors (Homo sapiens, UniProt P35462) (P35462 whole entry): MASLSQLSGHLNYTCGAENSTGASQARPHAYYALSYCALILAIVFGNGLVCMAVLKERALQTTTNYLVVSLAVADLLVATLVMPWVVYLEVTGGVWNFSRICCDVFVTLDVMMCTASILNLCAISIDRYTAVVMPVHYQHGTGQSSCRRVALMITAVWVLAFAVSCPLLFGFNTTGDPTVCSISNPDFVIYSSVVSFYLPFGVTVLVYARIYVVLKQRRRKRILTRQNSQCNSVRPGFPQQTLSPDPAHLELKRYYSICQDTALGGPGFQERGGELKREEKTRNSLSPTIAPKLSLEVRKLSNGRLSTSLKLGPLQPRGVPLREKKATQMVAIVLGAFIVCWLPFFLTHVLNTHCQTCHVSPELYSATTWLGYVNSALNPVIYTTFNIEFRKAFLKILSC
Source text: (§1) The new 2,3-benzodiazepine atypical antipsychotic agents of formula (I) of the present invention influence dopaminergic neurotransmission by a unique indirect fashion, differently from both the first and second generation antipsychotics. The in vitro binding profile of these compounds (Table 3) differs from that of the first generation antipsychotics which bind to dopaminergic receptors and second generation antipsychotics, representatives of which show affinity for dopaminergic, serotonergic, or adrenergic receptors.

[3] = target: central dopaminergic receptors (Rattus norvegicus, UniProt P61169); test: as above; conditions: rat striatal membranes, ligand [3H]sulpirid; read-out: D2 binding
Sequence of central dopaminergic receptors (Rattus norvegicus, UniProt P61169) (P61169 whole entry): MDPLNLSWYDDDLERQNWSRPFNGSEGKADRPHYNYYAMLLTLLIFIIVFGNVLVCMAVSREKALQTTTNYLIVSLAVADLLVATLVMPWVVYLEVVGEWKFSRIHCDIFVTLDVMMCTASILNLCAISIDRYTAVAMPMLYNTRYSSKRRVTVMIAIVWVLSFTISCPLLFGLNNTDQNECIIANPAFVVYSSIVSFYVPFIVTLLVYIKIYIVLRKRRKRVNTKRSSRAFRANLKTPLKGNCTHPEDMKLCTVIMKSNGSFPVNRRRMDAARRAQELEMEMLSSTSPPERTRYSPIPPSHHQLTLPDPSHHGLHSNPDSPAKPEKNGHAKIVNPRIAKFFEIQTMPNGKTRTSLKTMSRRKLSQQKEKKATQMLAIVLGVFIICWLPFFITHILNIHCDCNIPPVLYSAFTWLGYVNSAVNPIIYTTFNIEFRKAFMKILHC
Source text: as §1

[4] = target: T1, central dopaminergic receptors (Homo sapiens, UniProt P21917); test: as above; conditions: human recombinant CHO-K1 cells, ligand [3H]spiperone; read-out: D4 binding
T1 sequence (P21917 1-419): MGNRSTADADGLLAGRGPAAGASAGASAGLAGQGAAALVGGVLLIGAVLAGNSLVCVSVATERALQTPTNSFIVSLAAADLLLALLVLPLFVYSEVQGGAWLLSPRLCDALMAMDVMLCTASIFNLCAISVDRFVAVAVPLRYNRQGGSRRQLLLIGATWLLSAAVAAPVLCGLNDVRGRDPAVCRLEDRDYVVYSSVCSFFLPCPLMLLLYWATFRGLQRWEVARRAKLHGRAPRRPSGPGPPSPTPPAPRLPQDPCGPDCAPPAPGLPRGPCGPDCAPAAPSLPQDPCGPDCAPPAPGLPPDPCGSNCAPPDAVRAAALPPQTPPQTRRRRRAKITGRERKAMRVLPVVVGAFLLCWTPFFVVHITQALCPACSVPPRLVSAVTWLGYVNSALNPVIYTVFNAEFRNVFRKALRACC
Source text: as §1

[5] = target: central dopaminergic receptors (Homo sapiens, UniProt P21728); test: as above; conditions: human recombinant CHO cells, ligand [3H]SCH-23390; read-out: D1 binding
Sequence of central dopaminergic receptors (Homo sapiens, UniProt P21728) (P21728 whole entry): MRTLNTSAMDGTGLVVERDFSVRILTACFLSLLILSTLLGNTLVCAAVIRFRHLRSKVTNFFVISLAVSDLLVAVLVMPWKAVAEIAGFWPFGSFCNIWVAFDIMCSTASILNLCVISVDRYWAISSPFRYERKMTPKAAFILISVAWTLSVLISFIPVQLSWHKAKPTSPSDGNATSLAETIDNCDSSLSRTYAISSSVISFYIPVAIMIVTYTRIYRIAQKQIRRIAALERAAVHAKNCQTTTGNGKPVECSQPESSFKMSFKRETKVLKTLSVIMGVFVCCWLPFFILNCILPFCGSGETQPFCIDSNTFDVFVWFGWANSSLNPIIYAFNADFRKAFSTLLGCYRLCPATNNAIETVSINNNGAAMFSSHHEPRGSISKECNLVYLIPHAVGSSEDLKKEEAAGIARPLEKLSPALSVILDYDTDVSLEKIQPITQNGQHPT
Source text: as §1

Melatonin (MT2) receptor = target: T2, Melatonin (MT2) receptor (Homo sapiens, UniProt P49286); test: in vitro inhibition, melatonin (MT2) receptor; format: binding; conditions: conc: 10 μM
T2 sequence (P49286 1-362): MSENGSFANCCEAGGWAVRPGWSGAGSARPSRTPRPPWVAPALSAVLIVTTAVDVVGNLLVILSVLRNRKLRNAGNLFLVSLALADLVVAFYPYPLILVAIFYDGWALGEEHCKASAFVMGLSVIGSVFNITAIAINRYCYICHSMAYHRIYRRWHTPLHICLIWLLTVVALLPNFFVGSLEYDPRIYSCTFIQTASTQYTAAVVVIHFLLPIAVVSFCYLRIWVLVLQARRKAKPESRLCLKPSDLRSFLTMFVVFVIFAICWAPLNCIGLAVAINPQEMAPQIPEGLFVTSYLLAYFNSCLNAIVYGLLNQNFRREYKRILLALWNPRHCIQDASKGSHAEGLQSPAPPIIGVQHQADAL

[6] = test system: conditioned avoidance responses; test: conditioned avoidance: pole jumping test in rats; format: in vivo, Long-Evans rats
Source text: For measuring the antipsychotic potential in a non-perturbed dopamine system the pole jumping assay was used (Cook, L., Catania, A. C. Fed. Proc. 1964, 23, 818.)
This method is an active avoidance learning test. Long-Evans rats, weighing 250-450 g, were used in the experiments. Rats are placed in a box (25×25×25 cm) on a grid floor in the center of which there is a pole. After a latency period, light is turned on for a given time then the floor is electrified to deliver an unpleasant footshock. Rats may learn to avoid the shock by jumping up to grasp the pole. As soon as the rat jumps up the light and shock are turned off. Each light-on period lasted for 15 s, shock time for 30 s with an intertrial interval of 15 s. 30 such trials per day were repeated during the learning period until animals reach a minimum of 80% avoidance rate. During the experimental sessions 20 trials/day were run. Test substances were administered ip. in a volume of 0.25 ml/100 g body weight. Significances were calculated by Student's t test.

PCP-induced stereotypy = PCP-induced stereotypy in mice; format: in vivo, CD1 mice; conditions: Mus musculus, read-out: PCP-stereotypy ED50 mg/kg po.
Source text: Alterations in the mesocortical dopaminergic tract are thought to be responsible for the negative symptoms of schizophrenia (flattening of affect, poverty of speech, lack of volition and drive, loss of feeling, social withdrawal and decreased spontaneous movement). The best animal model of these symptoms is the behavioral changes induced by PCP (phencyclidine). The PCP-induced stereotypy and hypermotility was investigated in mice according to Ljungberg and Ungerstedt (Ljungberg, T., Ungerstedt, U. Pharmacol. Biochem. Behav., 1985, 23, 479,) and Jawitt (Jawitt, D. C. Amer. J. Psychiatry, 1991, 145, 1301). The stereotypy experiments were carried out in male CD1 mice weighing 20-25 g. The animals were starved for 16 hours before treatment without limitation of water availability. In the stereotypy studies, 30 min before treatment, mice were individually placed into small, transparent acrylic cages for habituation. Test substances were administered orally in a volume of 0.1 ml/10 g. 30 min later mice were treated with PCP with an intraperitoneal dose of 7 mg/kg. Stereotyped behavior was observed every 5th min for 60 min and scored from 0 to 4. The scores were summed individually, averaged and compared to the control group.
In both studies the ED50 values were calculated by the Litchfield-Wilcoxon's method (J. Pharmacol. Exp. Ther. 1949, 96, 49).

[7] = mice, po. 30 min before apomorphine 2 mg/kg s.c.
[8] = mice, po. 30 min before PCP 7 mg/kg ip

SMILES	ED50 [1] [mg/kg]	pKi [2]	pKi [3]	pKi [4]	pKi [5]	inhibition at 10 µM (Melatonin (MT2) receptor) [%]	MED (mg/kg ip), minimal effective dose (stat. sign.) [6] [mg/kg]	melting point [°C]	ED50 (PCP-induced stereotypy) [mg/kg]	ED50 [1, 7] [mg/kg]	ED50 (PCP-induced stereotypy; [8]) [mg/kg]
CNC(=O)N1N=C(c2ccc(N)cc2)c2cc(OC)c(OC)cc2C[C@H]1C [Example 121]	3.54	< 5.00	< 5.00	< 5.00	< 5.00	80	5	140 to 144	1.56	–	–
CNC(=O)N1N=C(c2ccc(N)c(C)c2)c2cc(OC)c(OC)cc2C[C@H]1C [Example 123]	7.52	< 5.00	< 5.00	< 5.00	< 5.00	64	2	147	1.07	–	–
COc1cc2c(cc1OC)C(c1ccc(N)c(C)c1)=NN(c1nncs1)[C@H](C)C2 [Example 110]	–	< 5.00	< 5.00	< 5.00	< 5.00	95	2	143	–	3.5	2.38
COc1cc2c(cc1OC)C(c1ccc(N)c(C)c1)=NN(c1ncon1)[C@H](C)C2 [Example 104]	–	< 5.00	< 5.00	< 5.00	< 5.00	80	15	–	–	6.97	1.12
